Data published in patent US20250275540A1, “USE OF PROTOPORPHYRINOGEN OXIDASE” (BEIJING DABEINONG BIOTECHNOLOGY CO., LTD., priority 2022, published 2025).

Test system: transgenic Arabidopsis thaliana T1 plants
Test: Detection of the herbicide tolerance of the transgenic Arabidopsis thaliana plants
Assay type: in vivo
Conditions: for The grade of pesticide damage/plant: 0 / The grade of pesticide damage/plant: 1 / The grade of pesticide damage/plant: 2 / The grade of pesticide damage/plant: 3: 7 DAT
Excerpt: The transformed Arabidopsis thaliana T1 plants were initially selected using glufosinate herbicide. The Arabidopsis thaliana T1 plants (PPOA-01) into which the PPOA-01 nucleotide sequence was introduced, the Arabidopsis thaliana T1 plants (PPOB-01) into which the PPOB-01 nucleotide sequence was introduced, the Arabidopsis thaliana T1 plants (PPOC-01) into which the PPOC-01 nucleotide sequence was introduced, the Arabidopsis thaliana T1 plants (PPOD-01) into which the PPOD-01 nucleotide sequence was introduced, the Arabidopsis thaliana T1 plants (PPOE-01) into which the PPOE-01 nucleotide sequence was introduced, the Arabidopsis thaliana T1 plants (PPOF-01) into which the PPOF-01 nucleotide sequence was introduced, the Arabidopsis thaliana T1 plants (PPO-AP-01) into which the PPO-AP-01 nucleotide sequence was introduced, and the Arabidopsis thaliana T1 plants (control vector) into which the control vector was introduced, the wild-type Arabidopsis thaliana plants (CK) (with 24 plants being included in each genotype) (18 days after sowing) were sprayed with saflufenacil at three concentrations (25 g ai/ha (one-fold field concentration, 1×), 100 g ai/ha (four-fold field concentration, 4×), and 0 g ai/ha (water, 0×)), oxyfluorfen at three concentrations (180 g ai/ha (one-fold field concentration, 1×), 720 g ai/ha (four-fold field concentration, 4×), and 0 g ai/ha (water, 0×)), and flumioxazin at three concentrations (60 g ai/ha (one-fold field concentration, 1×), 240 g ai/ha (four-fold field concentration, 4×), and 0 g ai/ha (water, 0×) to determine the tolerance of Arabidopsis thaliana to the herbicides. After 7 days of spraying (7 DAT), the damage level of each plant caused by the herbicide was evaluated according to the average of the damage levels (%) of plants (the average of the damage levels (%) of plants=the injured leaf area/the total leaf area×100%), i.e., the grade of pesticide damage: grade 0 means that the growth status of plants is essentially consistent with those sprayed with the blank solvent (water); grade 1 means that the average of the damage levels of plants is less than 10%; grade 2 means that the average of the damage levels of plants is greater than 10%; and grade 3 means that the average of the damage levels of plants is 100%. The plants having a growth status falling within grades 0 and 1 are classified as highly resistant plants; those having a growth status falling within grade 2 are classified as poorly resistant plants; and those having a growth status falling within grade 3 are classified as non-resistant plants.

[1] = genotype Control vector, 25 g ai/ha
[2] = genotype Control vector, 100 g ai/ha
[3] = genotype PPO-AP-01, 100 g ai/ha

CC(C)N(C)S(=O)(=O)NC(=O)c1cc(-n2c(=O)cc(C(F)(F)F)n(C)c2=O)c(F)cc1Cl [saflufenacil, N′-[2-chloro-4-fluoro-5-(3-methyl-2,6-dioxo-4-(trifluoromethyl)-3,6-dihydro-1 (2H)-pyrimidine)benzoyl]-N-isopropyl-N-methylsulfamide]
effective dose distinguishing sensitive plants from plants having an average level of resistance (Arabidopsis thaliana): 25 g ai/ha | The grade of pesticide damage/plant: 0 (genotype CK, 25 g ai/ha): 0 plant | The grade of pesticide damage/plant: 1 (genotype CK, 25 g ai/ha): 0 plant | The grade of pesticide damage/plant: 2 (genotype CK, 25 g ai/ha): 0 plant | The grade of pesticide damage/plant: 3 (genotype CK, 25 g ai/ha): 24 plant | The grade of pesticide damage/plant: 0 (genotype CK, 100 g ai/ha): 0 plant | The grade of pesticide damage/plant: 1 (genotype CK, 100 g ai/ha): 0 plant | The grade of pesticide damage/plant: 2 (genotype CK, 100 g ai/ha): 0 plant | The grade of pesticide damage/plant: 3 (genotype CK, 100 g ai/ha): 24 plant | The grade of pesticide damage/plant: 0 [1]: 0 plant | The grade of pesticide damage/plant: 1 [1]: 0 plant | The grade of pesticide damage/plant: 2 [1]: 0 plant | The grade of pesticide damage/plant: 3 [1]: 24 plant | The grade of pesticide damage/plant: 0 [2]: 0 plant | The grade of pesticide damage/plant: 1 [2]: 0 plant | The grade of pesticide damage/plant: 2 [2]: 0 plant | The grade of pesticide damage/plant: 3 [2]: 24 plant | The grade of pesticide damage/plant: 0 (genotype PPO-AP-01, 25 g ai/ha): 0 plant | The grade of pesticide damage/plant: 1 (genotype PPO-AP-01, 25 g ai/ha): 0 plant | The grade of pesticide damage/plant: 2 (genotype PPO-AP-01, 25 g ai/ha): 0 plant | The grade of pesticide damage/plant: 3 (genotype PPO-AP-01, 25 g ai/ha): 24 plant | The grade of pesticide damage/plant: 0 [3]: 0 plant | The grade of pesticide damage/plant: 1 [3]: 0 plant | The grade of pesticide damage/plant: 2 [3]: 0 plant | The grade of pesticide damage/plant: 3 [3]: 24 plant | tolerance to the herbicide (in words) (genotype PPO-AP-01, at different concentrations): no tolerance | The grade of pesticide damage/plant: 0 (genotype PPOA-01, 25 g ai/ha): 24 plant | The grade of pesticide damage/plant: 1 (genotype PPOA-01, 25 g ai/ha): 0 plant | The grade of pesticide damage/plant: 2 (genotype PPOA-01, 25 g ai/ha): 0 plant | The grade of pesticide damage/plant: 3 (genotype PPOA-01, 25 g ai/ha): 0 plant | The grade of pesticide damage/plant: 0 (genotype PPOA-01, 100 g ai/ha): 0 plant | The grade of pesticide damage/plant: 1 (genotype PPOA-01, 100 g ai/ha): 24 plant | The grade of pesticide damage/plant: 2 (genotype PPOA-01, 100 g ai/ha): 0 plant | The grade of pesticide damage/plant: 3 (genotype PPOA-01, 100 g ai/ha): 0 plant | The grade of pesticide damage/plant: 0 (genotype PPOB-01, 25 g ai/ha): 24 plant | The grade of pesticide damage/plant: 1 (genotype PPOB-01, 25 g ai/ha): 0 plant | The grade of pesticide damage/plant: 2 (genotype PPOB-01, 25 g ai/ha): 0 plant | The grade of pesticide damage/plant: 3 (genotype PPOB-01, 25 g ai/ha): 0 plant | The grade of pesticide damage/plant: 0 (genotype PPOB-01, 100 g ai/ha): 0 plant | The grade of pesticide damage/plant: 1 (genotype PPOB-01, 100 g ai/ha): 24 plant | The grade of pesticide damage/plant: 2 (genotype PPOB-01, 100 g ai/ha): 0 plant | The grade of pesticide damage/plant: 3 (genotype PPOB-01, 100 g ai/ha): 0 plant | The grade of pesticide damage/plant: 0 (genotype PPOC-01, 25 g ai/ha): 24 plant | The grade of pesticide damage/plant: 1 (genotype PPOC-01, 25 g ai/ha): 0 plant | The grade of pesticide damage/plant: 2 (genotype PPOC-01, 25 g ai/ha): 0 plant | The grade of pesticide damage/plant: 3 (genotype PPOC-01, 25 g ai/ha): 0 plant | The grade of pesticide damage/plant: 0 (genotype PPOC-01, 100 g ai/ha): 0 plant | The grade of pesticide damage/plant: 1 (genotype PPOC-01, 100 g ai/ha): 24 plant | The grade of pesticide damage/plant: 2 (genotype PPOC-01, 100 g ai/ha): 0 plant | The grade of pesticide damage/plant: 3 (genotype PPOC-01, 100 g ai/ha): 0 plant | The grade of pesticide damage/plant: 0 (genotype PPOD-01, 25 g ai/ha): 24 plant | The grade of pesticide damage/plant: 1 (genotype PPOD-01, 25 g ai/ha): 0 plant | The grade of pesticide damage/plant: 2 (genotype PPOD-01, 25 g ai/ha): 0 plant | The grade of pesticide damage/plant: 3 (genotype PPOD-01, 25 g ai/ha): 0 plant | The grade of pesticide damage/plant: 0 (genotype PPOD-01, 100 g ai/ha): 0 plant | The grade of pesticide damage/plant: 1 (genotype PPOD-01, 100 g ai/ha): 24 plant | The grade of pesticide damage/plant: 2 (genotype PPOD-01, 100 g ai/ha): 0 plant | The grade of pesticide damage/plant: 3 (genotype PPOD-01, 100 g ai/ha): 0 plant | The grade of pesticide damage/plant: 0 (genotype PPOE-01, 25 g ai/ha): 24 plant | The grade of pesticide damage/plant: 1 (genotype PPOE-01, 25 g ai/ha): 0 plant | The grade of pesticide damage/plant: 2 (genotype PPOE-01, 25 g ai/ha): 0 plant | The grade of pesticide damage/plant: 3 (genotype PPOE-01, 25 g ai/ha): 0 plant | The grade of pesticide damage/plant: 0 (genotype PPOE-01, 100 g ai/ha): 0 plant | The grade of pesticide damage/plant: 1 (genotype PPOE-01, 100 g ai/ha): 24 plant | The grade of pesticide damage/plant: 2 (genotype PPOE-01, 100 g ai/ha): 0 plant | The grade of pesticide damage/plant: 3 (genotype PPOE-01, 100 g ai/ha): 0 plant | The grade of pesticide damage/plant: 0 (genotype PPOF-01, 25 g ai/ha): 24 plant | The grade of pesticide damage/plant: 1 (genotype PPOF-01, 25 g ai/ha): 0 plant | The grade of pesticide damage/plant: 2 (genotype PPOF-01, 25 g ai/ha): 0 plant | The grade of pesticide damage/plant: 3 (genotype PPOF-01, 25 g ai/ha): 0 plant | The grade of pesticide damage/plant: 0 (genotype PPOF-01, 100 g ai/ha): 0 plant | The grade of pesticide damage/plant: 1 (genotype PPOF-01, 100 g ai/ha): 24 plant | The grade of pesticide damage/plant: 2 (genotype PPOF-01, 100 g ai/ha): 0 plant | The grade of pesticide damage/plant: 3 (genotype PPOF-01, 100 g ai/ha): 0 plant | tolerance to the herbicide (in words) (genotypes PPOA-01 to PPOF-01, at different concentrations, compared with the control vector and CK): high-resistant tolerance
